Measurements: patent US20230190774A1, “METHOD OF USING SUBSTRATES OF AKR1Bl/AKR1B10 AS ANTI-CANCER DRUGS” (Beijing Normal University Hong Kong Baptist University …, priority 2015, published 2023)
“Also recorded” adds a separate entry of the source. Where two headings read alike, the source gives them in different places. Where a SMILES comes first, the peptide text is derived from it. The star is where a group is joined. Cbz = O=C(OCc1ccccc1)*

Legend:
HT29 cells = assay: Cytotoxicity assay (cell survival rate, MTT); type: cell-based
Method: (§1) HepG2 cells, SKOV3 cells, HCT116 cells and CaCo2 cells were cultured in DMEM medium, SW480 cells in 1640 medium, and HT29 cells in McCoy’s 5A medium. […] In cytotoxicity assays, cells were seeded at 1 × 10^5 cells/well in 96 well plates with full medium. In GSH assay and Western blot analysis, cells were seeded at 3× 10^6 cells/well in 6 well plates. The AKR1Bs substrates’ cytotoxicity was assessed by cell survival rate using MTT assay. After the cells were treated with the substrates for the length of time indicated, MTT was added to a final concentration of 0.5 mg/ml in each well of a 96-well plate, and the plates were incubated at 37° C. for 4 hour. Then DMSO was added to dissolve the formazan product, the amount of which is proportional to the number of live cells. The absorbance of dissolved dye was measured at 540 nm using an automatic microplate reader.

SW480 cells = assay: Cytotoxicity assay (cell survival rate, MTT); type: cell-based
Method: as §1

AKR1B1 [1] = assay: Western blot of AKR1B1 protein level in treated cells; type: cell-based, human
Method: (§2) HepG2 cells, SKOV3 cells, HCT116 cells and CaCo2 cells were cultured in DMEM medium, SW480 cells in 1640 medium, and HT29 cells in McCoy’s 5A medium. All cell culture media were supplemented with 10% FBS, 1% PSN, and cells were cultured in a humidified incubator containing 5% CO2 at 37° C. In cytotoxicity assays, cells were seeded at 1 × 10^5 cells/well in 96 well plates with full medium. In GSH assay and Western blot analysis, cells were seeded at 3× 10^6 cells/well in 6 well plates.
(§3) Cells were lysed on ice with the protein extraction reagent. Total protein (30 µg) per sample were loaded onto 10% SDS-polyacrylamide gels and separated at 75V, and then electrotransferred to polyvinylidene difluoride (PVDF) membranes overnight at 15 V. Membranes were then soaked in 5% nonfat milk in TBS at room temperature for 1 hour and then incubated with rabbit anti-AKR1B1 antibodies (1:3000) or rabbit anti-AKR1B10 antibodies (1:3000) at room temperature for 2 hours. After being washed, the membranes were incubated in HRP-conjugated goat anti-rabbit or goat anti-mouse IgG secondary antibodies (1:5000) for 1 hour at room temperature, followed by washing and incubation with ECL reagents for 1 min. β-actin monoclonal mouse antibodies (1:5000) was used as reference to assess the relative amounts of proteins loaded per lane.

AKR1B10 [2] = assay: Western blot of AKR1B10 protein level in treated cells; type: cell-based, human
Method: as §2, §3

CaCo2 cells = assay: Cytotoxicity assay (cell survival rate, MTT); type: cell-based
Method: as §2
(§4) The AKR1Bs substrates’ cytotoxicity was assessed by cell survival rate using MTT assay. After the cells were treated with the substrates for the length of time indicated, MTT was added to a final concentration of 0.5 mg/ml in each well of a 96-well plate, and the plates were incubated at 37° C. for 4 hour. Then DMSO was added to dissolve the formazan product, the amount of which is proportional to the number of live cells. The absorbance of dissolved dye was measured at 540 nm using an automatic microplate reader.

HCT116 cells = assay: Cytotoxicity assay (cell survival rate, MTT); type: cell-based
Method: as §2, §4

HepG2 cells = assay: Cytotoxicity assay (cell survival rate, MTT); type: cell-based; settings: for Cytotoxicity of AKR1Bs substrate (cell survival rate): substrate alone, 2DG for 72 hours
Method: as §2, §4

SKOV3 cells = assay: Cytotoxicity assay (cell survival rate, MTT); type: cell-based; settings: for Cytotoxicity of AKR1Bs substrate (cell survival rate): substrate alone, 2DG for 72 hours
Method: as §2, §4

AKR1B10 [3] = molecular target: T1, AKR1B10 (Homo sapiens, UniProt O60218); assay: Enzyme activity assay (NADPH oxidation), purified AKR1B10; type: biochemical; settings: 20 mM substrate, pH 7.0, 30° C.
Method: Assay of AKR1B1 and AKR1B10 enzymes activities were conducted in 1 ml of the reaction mixture containing 135 mM sodium phosphate buffer (pH 6.2 for AKR1B1 or pH 7.0 for AKR1B10), 0.2 mM NADPH, 0.3 M ammonium sulfate, 2 µg purified protein and 20 mM of their substrate as indicated. The reaction mix was incubated at 30° C. for 30 minutes (min). Protein-free blank controls were included. The decrease of NADPH was monitored by spectrophotometer at 340 nm. Enzyme activity was calculated as the amount of NADPH oxidized/min/mg of protein (Shen Y et al., Chem Biol Interact. 2011, 191(1-3): 192-198).

[4] = for Death Rate / Death/Total: i.v., n=8
Method: ICR mice (18-22 g) were acquired from the Laboratory Animal Services Centre, The Chinese University of Hong Kong. These animals were housed in an animal room with 12 h of day and dark cycles, and the temperature maintained at around 25° C. There were 4 male and 4 female in each treatment and control group. They were treated with either diacetyl or glyceraldehyde. Diacetyl and glyceraldehyde were dissolved with saline and administered to the mice by intravenous injection with the amount indicated. […] Mortality was recorded daily for the calculation of […] (LD50). All surviving animals were euthanized with diethyl-ether at the end of the experiment.

HepG2 tumor xenograft = settings: 80 mg/kg, tail vein, daily for 21 days
Method: Six-week-old male BALB/C nude mice were purchased from the Laboratory Animal Unit of the University of Hong Kong. Mice were allowed to acclimate to laboratory conditions for 1 week before cancer cells injection. […] Treatment was initiated when the tumor grew to about 200±100 mm3. […] Mice were randomized and allocated to different groups. They received daily tail vein injection for 3 weeks of one of the following: glyceraldehyde (500 mg/kg body weight); diacetyl (80 mg/kg body weight); or normal saline. Mice were weighted and the sizes of the tumors were measured with calipers every 3 days. Tumor volumes were calculated with the formula: length×width2/2. Animals were humanely killed at the end of the experiment and their tumors were weighed.

AKR1B1 [5] = molecular target: AKR1B1 (Homo sapiens, UniProt P15121); settings: ND = no detectable activity or less than 32 nmol/min/mg; cited from earlier work
AKR1B10 [6] = molecular target: T1, AKR1B10; settings: ND = no detectable activity or less than 32 nmol/min/mg; cited from earlier work
[7] = pretreated 24 hours before addition of 2DG
[8] = substrate alone, 2DG for 72 hours
[9] = BSO with 1.25/0.625 mM substrate, NAC with 2.5/1.25 mM substrate
[10] = BSO (0.3 mM) with 1.25/0.625 mM substrate, NAC with 2.5/1.25 mM substrate

T1 sequence (O60218 whole entry): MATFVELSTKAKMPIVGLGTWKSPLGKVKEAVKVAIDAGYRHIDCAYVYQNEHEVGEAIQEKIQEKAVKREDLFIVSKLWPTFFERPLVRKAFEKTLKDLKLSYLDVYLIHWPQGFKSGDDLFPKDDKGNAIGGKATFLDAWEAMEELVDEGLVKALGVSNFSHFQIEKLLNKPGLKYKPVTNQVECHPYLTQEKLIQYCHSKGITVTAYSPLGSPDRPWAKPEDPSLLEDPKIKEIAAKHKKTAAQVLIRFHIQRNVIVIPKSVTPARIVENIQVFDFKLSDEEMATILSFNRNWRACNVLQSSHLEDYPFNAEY

SMILES: CC(C)C[C@@H](C=O)NC(=O)[C@H](CC(C)C)NC(=O)[C@H](CC(C)C)NC(=O)OCc1ccccc1 [MG-132] (Cbz-Leu-Leu-Leu-aldehyde)
- Sensitivity to 2DG after pretreatment (HT29 cells; [7]): significantly more cells were killed by 2DG
- Sensitivity to 2DG after pretreatment (SW480 cells; [7]): significantly more cells were killed by 2DG
- AKR1B1 protein level (western blot) (AKR1B1 [1]; HT29 cells): able to increase
- AKR1B1 protein level (western blot) (AKR1B1 [1]; SW480 cells): able to increase
- AKR1B10 protein level (western blot) (AKR1B10 [2]; HT29 cells): able to increase
- AKR1B10 protein level (western blot) (AKR1B10 [2]; SW480 cells): able to increase

SMILES: CC(=O)C(C)=O [Diacetyl, diacetyl]
- Cytotoxicity of AKR1Bs substrate (cell survival rate) (CaCo2 cells; [8]): dose dependently and preferentially kill
- Cytotoxicity of AKR1Bs substrate (cell survival rate) (HCT116 cells; [8]): dose dependently and preferentially kill
- Cytotoxicity of AKR1Bs substrate (cell survival rate) (HepG2 cells): dose-dependently and preferentially kill
- Cytotoxicity of AKR1Bs substrate (cell survival rate) (HepG2 cells; listed as diacetyl): dose dependently and preferentially kill
- Cytotoxicity of AKR1Bs substrate (cell survival rate) (SKOV3 cells): dose-dependently and preferentially kill
- Cytotoxicity of AKR1Bs substrate (cell survival rate) (SKOV3 cells; listed as diacetyl): dose dependently and preferentially kill
- Cytotoxicity of AKR1Bs substrate (cell survival rate) (HT29 cells; [8]): more resistant
- Cytotoxicity of AKR1Bs substrate (cell survival rate) (SW480 cells; [8]): more resistant
- Efficiency as substrate of AKR1B10 (rate of NADPH depletion) (AKR1B10 [3]): better substrate for AKR1B10 than for AKR1B1; also recorded: best substrate
- LD50 ([4]; ICR mice, intravenous injection daily for 14 days): 410 mg/kg BW
- Death Rate ([4]; dose 300 mg/kg BW): 0%
- Death/Total ([4]; dose 300 mg/kg BW): 0/8
- Death Rate ([4]; dose 360 mg/kg BW): 37.5%
- Death/Total ([4]; dose 360 mg/kg BW): ⅜
- Death Rate ([4]; dose 432 mg/kg BW): 62.5%
- Death/Total ([4]; dose 432 mg/kg BW): ⅝
- Death Rate ([4]; dose 518 mg/kg BW): 87.5%
- Death/Total ([4]; dose 518 mg/kg BW): ⅞
- Death Rate ([4]; dose 622 mg/kg BW): 100.0%
- Death/Total ([4]; dose 622 mg/kg BW): 8/8
- Tumor volume (HepG2 tumor xenograft): significantly reduced
- Tumor weight (HepG2 tumor xenograft): significantly reduced
- AKR1B1 activity, amount of NADPH (nmol) oxidized per min per mg of protein (AKR1B1 [5]): 725 nmol/min/mg
- AKR1B10 activity, amount of NADPH (nmol) oxidized per min per mg of protein (AKR1B10 [6]): 2329 nmol/min/mg

SMILES: O=Cc1ccccn1 [Pyridine-2-aldehyde]
- AKR1B1 activity, amount of NADPH (nmol) oxidized per min per mg of protein (AKR1B1 [5]): 632 nmol/min/mg
- AKR1B10 activity, amount of NADPH (nmol) oxidized per min per mg of protein (AKR1B10 [6]): 4645 nmol/min/mg

SMILES: O=C[C@H](O)[C@@H](O)[C@@H](O)[C@H](O)CO [D-Galactose]
- AKR1B1 activity, amount of NADPH (nmol) oxidized per min per mg of protein (AKR1B1 [5]): 193 nmol/min/mg
- AKR1B10 activity, amount of NADPH (nmol) oxidized per min per mg of protein (AKR1B10 [6]): 65 nmol/min/mg

SMILES: CC(=O)N[C@@H](CS)C(=O)O [NAC, N-acetyl-cysteine]
- Effect on toxicity of glyceraldehyde and diacetyl (CaCo2 cells; [9]): able to protect the cells
- Effect on toxicity of glyceraldehyde and diacetyl (HCT116 cells; [9]): able to protect the cells
- Effect on toxicity of glyceraldehyde and diacetyl (HepG2 cells; [10]): able to protect the cells
- Effect on toxicity of glyceraldehyde and diacetyl (SKOV3 cells; [10]): able to protect the cells
